17 molecules from patent publication US11999727B2 (Tango Therapeutics, Inc., priority 2020, dated 2024) can be followed below.

Like-named read-outs stand apart in the source and are kept apart here.

Assay [1] has as its target T1, PRMT5 (Homo sapiens, UniProt O14744).
T1 construct: purchased Viva (custom protein)
As to the kind of experiment: PRMT5 biochemical IC50 assay with no cofactor. The settings on record: PRMT5, no cofactor; read-out: No Cofactor/ rel IC50. The source says: Table 1 indicates IC50 values (μM) against PRMT5 for exemplary compounds in the presence of SAM as cofactor, with no cofactor, and with MTA as cofactor, respectively (columns 4-6). […] Ki values can be calculated from the IC50 values as described in the Examples section. As detailed in the Examples section, for the assay performed in the presence of SAM, IC50=Ki×1.5 (Ki=IC50/1.5).

In assay [2] the target is T1, PRMT5. As to the kind of experiment: PRMT5 biochemical IC50 assay with SAM as cofactor. The settings on record: PRMT5, SAM as cofactor; read-out: SAM IC50.
Assay [3] deals with HAP1 MTAP-deleted cell line. As to the kind of experiment: Viability assay, MTAP-deleted cell line. The settings on record: Homo sapiens, read-out: HAP1 MTAP deleted viability. The class given is cell-based. The source says: Table 1 additionally indicates IC50 values in a viability assay for the MTAP-deleted cell line (column 10), indicating the effect of treatment with compound on cell survival.

In assay [4] the test system is HAP1 MTAP-intact cell line. As to the kind of experiment: SDMA in-cell western assay, HAP1 MTAP-intact. The class given is cell-based. As to conditions: HAP1 MTAP-intact, read-out: MTAP HAP1 intact IC50. In a few lines:
(§1)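 IC50 values come from SDMA signal quantified by in-cell western in two HAP1 lines, one with native MTAP levels and one lacking MTAP.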

In assay [5] the target is T1, PRMT5. As to the kind of experiment: PRMT5 biochemical IC50 assay with MTA as cofactor. The settings on record: PRMT5, MTA as cofactor; read-out: MTA IC50.
Assay [6] relates to HAP1 MTAP-deleted cell line. Put plainly: SDMA in-cell western assay, HAP1 MTAP-deleted. In kind it is cell-based. The settings on record: for IC50: Homo sapiens, HAP1, SDMA in-cell western, HAP1 MTAP-deleted, read-out: HAP 1 MTAP deleted IC50; for MTAP intact/deleted ratio: IC50 ratio HAP1 MTAP-intact / HAP1 MTAP-deleted, SDMA in-cell western. Put shortly:
as §1

[7] abbreviates: HAP1, viability, HAP1 MTAP-deleted cell line.
[8] abbreviates: Homo sapiens, HAP1, SDMA in-cell western.
Where [9] appears, read: HAP1, viability assay, MTAP-deleted cell line.

T1 sequence (O14744 whole entry): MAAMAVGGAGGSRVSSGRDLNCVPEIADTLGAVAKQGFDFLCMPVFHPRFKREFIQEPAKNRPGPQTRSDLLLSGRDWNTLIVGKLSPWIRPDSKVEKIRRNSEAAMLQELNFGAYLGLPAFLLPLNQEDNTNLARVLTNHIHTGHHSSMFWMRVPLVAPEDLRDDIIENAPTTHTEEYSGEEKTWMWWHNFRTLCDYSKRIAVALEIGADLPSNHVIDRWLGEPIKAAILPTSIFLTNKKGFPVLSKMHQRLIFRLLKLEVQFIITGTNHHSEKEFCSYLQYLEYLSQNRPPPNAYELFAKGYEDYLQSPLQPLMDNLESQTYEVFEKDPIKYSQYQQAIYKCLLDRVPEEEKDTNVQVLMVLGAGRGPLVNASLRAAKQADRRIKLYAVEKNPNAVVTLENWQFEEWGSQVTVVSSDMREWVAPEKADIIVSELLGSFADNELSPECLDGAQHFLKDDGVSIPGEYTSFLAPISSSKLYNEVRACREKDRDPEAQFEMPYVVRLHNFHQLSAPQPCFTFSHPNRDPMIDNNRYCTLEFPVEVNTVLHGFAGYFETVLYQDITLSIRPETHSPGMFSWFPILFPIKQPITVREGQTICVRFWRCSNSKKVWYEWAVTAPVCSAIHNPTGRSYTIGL
T1 sequence (Q9BQA1 whole entry partner): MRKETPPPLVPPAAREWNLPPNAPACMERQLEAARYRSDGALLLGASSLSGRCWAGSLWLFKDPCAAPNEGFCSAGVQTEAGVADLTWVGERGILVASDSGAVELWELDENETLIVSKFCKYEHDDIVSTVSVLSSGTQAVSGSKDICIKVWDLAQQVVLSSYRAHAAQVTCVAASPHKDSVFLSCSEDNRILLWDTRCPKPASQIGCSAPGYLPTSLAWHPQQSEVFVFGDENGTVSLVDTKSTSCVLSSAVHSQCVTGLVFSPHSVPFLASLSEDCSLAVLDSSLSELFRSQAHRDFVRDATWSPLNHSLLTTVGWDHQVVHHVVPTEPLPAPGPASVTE

In the case of `C[C@@H]1CC[C@@H](c2ccc3[nH]ncc3c2)N(C(=O)C(=O)Nc2cnc(N)c(C3CC3)c2)C1` (single isomer, unassigned) [Compound 1361], the IC50 at PRMT5 [1] is greater than 500 nM; at PRMT5 [2], greater than 500 nM; in assay [3] (setting [7]), greater than 10000 nM; in assay [4] (setting [8]) it was greater than 1000 nM; at PRMT5 [5], greater than 500 nM; in assay [6], greater than 1000 nM.

Regarding `COc1ncc(NC(=O)C(=O)N2C[C@H](C)[C@H](OC)C[C@H]2c2ccc3scnc3c2)cc1C(N)=O` (single isomer, unassigned) [Compound 1364], the IC50 on PRMT5 [1] was less than 50 nM; on PRMT5 [2], 50 to 500 nM; in assay [3] (setting [7]), less than 1000 nM; in assay [4] (setting [8]), 100 to 1000 nM; at PRMT5 [5], less than 50 nM; in assay [6], less than 100 nM. For the same molecule, the “MTAP intact/deleted ratio” value in assay [6] is given as “A (an IC50 ratio greater than or equal to 10 fold)”.

For `CO[C@H]1C[C@H](c2ccc3scnc3c2)N(C(=O)C(=O)Nc2cnc(N)c(C3CC3)c2)C[C@H]1C` (single isomer, unassigned) [Compound 1370], the IC50 on PRMT5 [1] was less than 50 nM; at PRMT5 [2] it was 50 to 500 nM; in assay [3] (setting [7]), less than 1000 nM; in assay [4] (setting [8]) it was less than 100 nM; at PRMT5 [5], less than 50 nM; in assay [6], less than 100 nM. Besides, the “MTAP intact/deleted ratio” value in assay [6] is given as “A (an IC50 ratio greater than or equal to 10 fold)”.

For the molecule `CCc1cc(NC(=O)C(=O)N2C[C@@H](C)CC[C@@H]2c2ccc(N3CCN(C)CC3)cc2)cnc1N` (single isomer, unassigned) [Compound 1371], the IC50 was less than 50 nM at PRMT5 [1]; 50 to 500 nM on PRMT5 [2]; less than 1000 nM in assay [3] (setting [7]); 100 to 1000 nM in assay [4] (setting [8]); less than 50 nM at PRMT5 [5]; less than 100 nM in assay [6]. For the same molecule, the “MTAP intact/deleted ratio” value in assay [6] was “A (an IC50 ratio greater than or equal to 10 fold)”.

For the molecule `CCc1cc(NC(=O)C(=O)N2C[C@H](C)CC[C@H]2c2ccc3c(cnn3CCN(C)C)c2)cnc1N` (single isomer, unassigned) [Compound 1374], the IC50 on PRMT5 [1] was less than 50 nM; at PRMT5 [2], 50 to 500 nM; in assay [3] (setting [7]) it was less than 1000 nM; in assay [4] (setting [8]), 100 to 1000 nM; at PRMT5 [5], less than 50 nM; in assay [6] it was less than 100 nM. Besides, the “MTAP intact/deleted ratio” value in assay [6] is listed as “A (an IC50 ratio greater than or equal to 10 fold)”.

`CCc1cc(NC(=O)C(=O)N2C[C@H](C)CC[C@H]2c2ccc3sc(CCOC)nc3c2)cnc1N` (single isomer, unassigned) [Compound 1375]: the IC50 at PRMT5 [1] is greater than 500 nM; on PRMT5 [2], greater than 500 nM; in assay [3] (setting [7]) it was greater than 10000 nM; in assay [4] (setting [8]), greater than 1000 nM; at PRMT5 [5], greater than 500 nM; in assay [6], greater than 1000 nM.

In the case of `CCc1cc(NC(=O)C(=O)N2C[C@@H](C)CC[C@@H]2c2ccc3sc(CCOC)nc3c2)cnc1N` (single isomer, unassigned) [Compound 1386], the IC50 at PRMT5 [1] is less than 50 nM; at PRMT5 [2], 50 to 500 nM; in assay [3] (setting [7]) it was less than 1000 nM; in assay [4] (setting [8]), 100 to 1000 nM; on PRMT5 [5], less than 50 nM; in assay [6], less than 100 nM. In addition, in assay [6], the “MTAP intact/deleted ratio” value is recorded as “A (an IC50 ratio greater than or equal to 10 fold)”.

Regarding `Cc1cc(NC(=O)C(=O)N2C[C@@H](C)CC[C@@H]2c2cc3cn[nH]c3s2)cnc1N` (single isomer, unassigned) [Compound 1392], the IC50 at PRMT5 [1] was 50 to 500 nM; on PRMT5 [2] it was 50 to 500 nM; in assay [3] (setting [7]), less than 1000 nM; in assay [4] (setting [8]), 100 to 1000 nM; on PRMT5 [5] it was less than 50 nM; in assay [6], less than 100 nM. Besides, in assay [6], the “MTAP intact/deleted ratio” value is “A (an IC50 ratio greater than or equal to 10 fold)”.

In the case of `CCc1cc(NC(=O)C(=O)N2C[C@@H](C)CC[C@@H]2c2ccc3sc([C@H]4CCN(C)C(C)(C)C4)nc3c2)cnc1N` (single isomer, unassigned) [Compound 1397], the IC50 was less than 50 nM on PRMT5 [1]; 50 to 500 nM at PRMT5 [2]; less than 1000 nM in assay [3] (setting [7]); less than 100 nM in assay [4] (SDMA in-cell western); less than 50 nM on PRMT5 [5]; less than 100 nM in assay [6]. Besides, the “MTAP intact/deleted ratio” value in assay [6] is reported as “A (an IC50 ratio greater than or equal to 10 fold)”.

As for `C[C@@H]1CC[C@@H](c2ccc3cn(C)nc3c2)N(C(=O)C(=O)Nc2cnc(N)c(C3CC3)c2)C1` (single isomer, unassigned) [Compound 1403], the IC50 at PRMT5 [1] is less than 50 nM; at PRMT5 [2] it was 50 to 500 nM; in assay [3] (setting [7]) it was less than 1000 nM; in assay [4] (setting [8]), 100 to 1000 nM; at PRMT5 [5] it was less than 50 nM; in assay [6] it was less than 100 nM. Besides, the “MTAP intact/deleted ratio” value in assay [6] is “A (an IC50 ratio greater than or equal to 10 fold)”.

In the case of `CC(=O)N1CCC(c2cccc(C3CCCCN3C(=O)C(=O)Nc3cncc(C)c3)c2)CC1` (stereo not drawn) [Compound 7, 2-(2-(3-(1-acetylpiperidin-4-yl)phenyl)piperidin-1-yl)-N-(5-methylpyridin-3-yl)-2-oxoacetamide], the IC50 is greater than 500 nM at PRMT5 [1]; greater than 500 nM at PRMT5 [2]; greater than 10000 nM in assay [3] (setting [9]); greater than 1000 nM in assay [4] (setting [8]); 50 to 500 nM at PRMT5 [5]; greater than 1000 nM in assay [6]. Moreover, the “MTAP intact/deleted ratio” value in assay [6] is “C (an IC50 ratio of less than 3 fold)”.

`Cc1cc(NC(=O)C(=O)N2CCCCC2c2cccs2)cnc1N` (stereo not drawn) [Compound 9, N-(6-Amino-5-methylpyridin-3-yl)-2-oxo-2-(2-(thiophen-2-yl)piperidin-1-yl)acetamide]: the IC50 on PRMT5 [1] is 50 to 500 nM; at PRMT5 [2], 50 to 500 nM; in assay [3] (setting [9]) it was greater than 10000 nM; in assay [4] (setting [8]), greater than 1000 nM; on PRMT5 [5] it was less than 50 nM; in assay [6] it was 100 to 1000 nM. In assay [6], the “MTAP intact/deleted ratio” value is “A (an IC50 ratio greater than or equal to 10 fold)”.

In the case of `Cc1cncc(NC(=O)C(=O)N2CCCCC2c2cccc(N(C)C)c2)c1` (stereo not drawn) [Compound 15, 2-(2-(3-(dimethylamino)phenyl)piperidin-1-yl)-N-(5-methylpyridin-3-yl)-2-oxoacetamide], the IC50 was greater than 500 nM on PRMT5 [1]; greater than 500 nM at PRMT5 [2]; greater than 10000 nM in assay [3] (setting [9]); greater than 1000 nM in assay [4] (setting [8]); 50 to 500 nM on PRMT5 [5]; greater than 1000 nM in assay [6]. The “MTAP intact/deleted ratio” value in assay [6] is on record as “C (an IC50 ratio of less than 3 fold)”.

With `Cn1nccc1C1CCCCN1C(=O)C(=O)Nc1cncc(C(N)=O)c1` (stereo not drawn) [Compound 26, 5-[[2-[2-(2-methylpyrazol-3-yl)-1-piperidyl]-2-oxo-acetyl]amino]pyridine-3-carboxamide], the IC50 on PRMT5 [1] is greater than 500 nM; on PRMT5 [2], 50 to 500 nM; in assay [3] (setting [9]), greater than 10000 nM; in assay [4] (setting [8]) it was greater than 1000 nM; at PRMT5 [5] it was 50 to 500 nM; in assay [6], 100 to 1000 nM. In assay [6], the “MTAP intact/deleted ratio” value is “A (an IC50 ratio greater than or equal to 10 fold)”.

For `NC(=O)c1cncc(NC(=O)C(=O)N2CCCCC2c2ccccc2)c1` (stereo not drawn) [Compound 29, 5-[[2-oxo-2-(2-phenyl-1-piperidyl)acetyl]amino]pyridine-3-carboxamide], the IC50 at PRMT5 [1] is greater than 500 nM; on PRMT5 [2], 50 to 500 nM; in assay [3] (setting [9]), greater than 10000 nM; in assay [4] (setting [8]), greater than 1000 nM; on PRMT5 [5] it was 50 to 500 nM; in assay [6], 100 to 1000 nM. Moreover, in assay [6], the “MTAP intact/deleted ratio” value is “A (an IC50 ratio greater than or equal to 10 fold)”.

Regarding `Cc1cc(NC(=O)C(=O)N2CCCCC2C2CCCCC2)cnc1N` (stereo not drawn) [Compound 30, N-(6-amino-5-methyl-3-pyridyl)-2-[2-cyclohexyl-1-piperidyl]-2-oxo-acetamide], the IC50 was 50 to 500 nM at PRMT5 [1]; 50 to 500 nM at PRMT5 [2]; greater than 10000 nM in assay [3] (setting [9]); greater than 1000 nM in assay [4] (setting [8]); 50 to 500 nM on PRMT5 [5]; 100 to 1000 nM in assay [6]. Besides, the “MTAP intact/deleted ratio” value in assay [6] is given as “A (an IC50 ratio greater than or equal to 10 fold)”.

For `Cc1cc(NC(=O)C(=O)N2CCCCC2c2cccnc2)cnc1N` (stereo not drawn) [Compound 38, N-(6-Amino-5-methyl-3-pyridyl)-2-oxo-2-[2-(3-pyridyl)-1-piperidyl]acetamide], the IC50 on PRMT5 [1] was 50 to 500 nM; at PRMT5 [2] it was 50 to 500 nM; in assay [3] (setting [9]), greater than 10000 nM; in assay [4] (setting [8]), greater than 1000 nM; at PRMT5 [5] it was 50 to 500 nM; in assay [6] it was greater than 1000 nM. The “MTAP intact/deleted ratio” value in assay [6] was “B (an IC50 ratio greater than or equal to 3 fold but lower than 10 fold)”.
